Earlier results as cited in patent US20040142388A1, “Method for detecting chronic dementia diseases, and corresponding VGF peptides and detection reagents” (priority 2001, published 2004).

Test system: PC12 cell line
Details: rat pheochomozytome cell line (PC12), stimulation with nerve growth factor

For “NGF: important growth factor which regulates the differentiation of the peripheral and central nervous system”, the “increase in the concentration of VGF” value is given as 12- to 14 fold.
